Legend:
[1] = Oxidative stability index (OSI); type: physicochemical; settings: 80° C., air flow […]
Protocol: Oxidative stability index (OSI). An Oxidative Stability Instrument (Omnion, Rockland, Mass.) was used to measure induction times. Five grams of tricaprylin, EPAX 5500 (fish oil TAG, Pronova Biocare, Sandefjord, Norway), and SL which was deacidified by alkali-liquid extraction were placed into the disposable borosilicate glass reaction tubes with disposable pipets. The heating temperature was 80° C. The polycarbonate conductivity tubes were filled with deionized water and he probes were connected. After temperature reached 80° C., air was bubbled in. […] OSI time was determined with an on-line computer, which monitored the conductivity vs time and plotted the induction period automatically. OSI values at 80° C. were converted to AOM and OSI values at 97.8° C.

[2] = TBA (2-thiobarbituric acid) lipid oxidation test; type: physicochemical; settings: 1, 2, and 4% α-tocopherol in SL, after 48 hours
Protocol: TBA. A modified extraction 2-thiobarbituric acid method was used, Salih, et al., Poult. Sci., 66:1483-1488 (1987). The TBA test expresses lipid oxidation in milligram malonaldehyde (secondary oxidation product of polyunsaturated fatty acids) per kilogram of sample. 1±0.002 grams of SL was mixed with 0.01, 0.02, and 0.04 grams of α-tocopherol in a 25 mL flask and left at room temperature without protection from light for 12, 24, and 48 hours. Each sample was then purged with nitrogen and stored at −90° C. until assay. One milliliter of 6% BHT in ethanol and 25 mL 5% TCA solution in distilled water were added to each sample and blended. A 2 mL aliquot of the blended sample was mixed with 0.02 M TBA solution (3 mL) in screw capped test tubes. After vortexing (30 sec.), the tubes were incubated in boiling water for 30 min., cooled and the absorbance against blank was measured at 535 nm. A 5 μL aliquot of TEP (0.92 g/mL) was diluted to 5 mL with 5% TCA solution and diluted to prepare various concentrations ranging from […]. Each dilution was incubated and the absorbance against blank was measured after cooling. Standard curve was plotted using absorbance values vs amount of TEP which was converted from concentration.

Row | SMILES | OSI value [1] | antioxidant effect on SL (TBA) [2]
1 | CCCCCCCC(=O)OCC(COC(=O)CCCCCCC)OC(=O)CCCCCCC [tricaprylin, 1,2,3-trioctanoyl glycerol] | quite stable to oxidation | –
2 | Cc1c(C)c2c(c(C)c1O)CC[C@@](C)(CCC[C@H](C)CCC[C@H](C)CCCC(C)C)O2 [α-tocopherol] | – | reduced the oxidation of SL significantly
